{"source": "patent US8759051B2", "about": "“Control of contaminant microorganisms in fermentation processes with peroxygen-releasing compounds” (E I du Pont de Nemours and Company, priority 2010, dated 2014)", "key": {"[1]": {"test_system": "lactic acid bacteria (LAB)", "test": "Inactivation of LAB in molasses at pH 4.2 and 5.4 (Examples 2 and 3)", "type": "cell-based", "conditions": "for reduction in the amount of LAB: 2 hours; for reduction in the levels of LAB: 2-hour", "method": "Molasses (B&G Foods, Inc., Roseland, N.J.) was diluted 1 to 3.1 with water and sterilized as in Example 1. The prepared molasses was then divided into two lots and pH-adjusted using sulfuric acid to approximately pH 4.2 and 5.4, respectively. Cultures of LAB were prepared as in Example 1 and inoculated into the molasses to give approximately 1×10^6 CFU/ml. Sodium percarbonate (Alfa Aesar, Ward Hill, Mass.) was added to give 250, 500, and 750 ppm. […] Levels of LAB were enumerated by dilution and plating onto the surface of MRS agar followed by incubation at 32° C. LAB were enumerated at approximately 2 and 24 hours after the addition of sodium percarbonate.\nMolasses was prepared as above and adjusted to pH 4.2 and 5.4 using sulfuric acid. Cultures of lactic acid bacteria were prepared as indicated in Example 1 and inoculated into the molasses to give approximately 10E6 CFU/ml. Levels of bacteria were confirmed by plating serial dilutions of the inoculated molasses onto the surface of MRS agar plates as in Example 1. Calcium peroxide was added at the levels indicated. Bacterial levels were enumerated at 2 and 24 hours following addition as described above."}, "Ethanol Red": {"test_system": "Ethanol Red", "test": "Susceptibility of fermenting yeast to sodium percarbonate in diluted molasses (Example 1, second part)", "type": "cell-based", "conditions": "for yeast level after treatment: two hours, molasses", "method": "(§1) In a second part of this Example 1, the yeasts strains Ethanol Red, FermPro S, and SuperStart (commonly used as fermenting yeasts in the ethanol industry) were cultured overnight in Yeast Peptone Dextrose broth (YPD, Difco Laboratories Inc., Sparks, Md.). Individual strains were then suspended in dilute molasses as above to give approximately 1×10^6 CFU/ml and treated with various concentration of percarbonate for two hours as described above."}, "FermPro S": {"test_system": "FermPro S", "test": "Susceptibility of fermenting yeast to sodium percarbonate in diluted molasses (Example 1, second part)", "type": "cell-based", "conditions": "for yeast level after treatment: two hours, molasses", "method": "as §1"}, "SuperStart": {"test_system": "SuperStart", "test": "Susceptibility of fermenting yeast to sodium percarbonate in diluted molasses (Example 1, second part)", "type": "cell-based", "conditions": "for yeast level after treatment: two hours, molasses", "method": "as §1"}, "[2]": {"test_system": "lactic acid bacteria (LAB)", "test": "Inactivation of LAB in dilute molasses at pH 5.0 in the presence of yeast Ethanol Red (Example 5)", "type": "cell-based", "conditions": "for Log CFU/mL of LAB at hour indicated: 32° C.", "method": "Cultures of lactic acid bacteria (LAB) were prepared as in Example 1 above. Molasses was diluted 1:3.1 with water as in previous examples. The fermenting yeast Ethanol Red was cultured as in example 1. Populations of lactic acid bacteria and yeasts were determined by dilution plating on MRS agar and YPD agar, respectively. Overnight cultures of LAB were mixed to prepare a bacterial cocktail and inoculated into molasses (diluted 1:3.1 with water) adjusted to pH 5.0 to give approximately 6.11 Log CFU/ml. Cultures of yeasts were added to each tube at a concentration of approximately 6.80 Log CFU/ml. […] The amount of UHP added was 1450 ppm. The amount of percarbonate added was 1812 ppm. Tubes were then incubated at 32° C. with agitation. […] Amphotericin inhibits the growth of yeast, facilitating enumeration of bacteria only."}, "[3]": {"test": "Stability of peroxygen-releasing compounds during storage at 40° C., iodometric titration of hydrogen peroxide (Example 4)", "type": "physicochemical", "method": "A dry oven was used to store samples of the peroxygen-releasing compounds at 40° C. The oven was allowed to equilibrate overnight. Two-gram duplicate samples of each of the following peroxygen-releasing compounds were dispensed into aluminum weighing dishes: sodium percarbonate (Alfa Aesar, Ward Hill, Mass.), sodium percarbonate FB 400 (Solvay Chemicals, Inc., Houston, Tex.), sodium percarbonate FB […] (Solvay Chemicals, Inc.), calcium peroxide (Sigma-Aldrich Co., St. […] After six days, samples were analyzed for levels of hydrogen peroxide using standard iodometric titration."}, "[4]": {"conditions": "1.0×10^6 CFU/ml, 500 ppm percarbonate"}}, "note": "Where “and” joins values, the source holds several entries; their conditions need not be identical. Identical values can stand only once."}
{"compound": "O=C([O-])[O-].O=C([O-])[O-].OO.OO.OO.[Na+].[Na+].[Na+].[Na+]", "note": "[Sodium percarbonate, sodium percarbonate]", "values": [{"measurement": "CFU/ml LAB at hour indicated", "setting": "[1]; molasses at pH 4.2, 250 ppm (69 ppm as H2O2), hour 2", "result": "7.85 × 10^5 CFU/ml"}, {"measurement": "CFU/ml LAB at hour indicated", "setting": "[1]; molasses at pH 4.2, 250 ppm (69 ppm as H2O2), hour 24", "result": "8.75 × 10^4 CFU/ml"}, {"measurement": "CFU/ml LAB at hour indicated", "setting": "[1]; molasses at pH 4.2, 500 ppm (138 ppm as H2O2), hour 2", "result": "8.40 × 10^5 CFU/ml"}, {"measurement": "CFU/ml LAB at hour indicated", "setting": "[1]; molasses at pH 4.2, 500 ppm (138 ppm as H2O2), hour 24", "result": "7.90 × 10^6 CFU/ml"}, {"measurement": "CFU/ml LAB at hour indicated", "setting": "[1]; molasses at pH 4.2, 750 ppm (207 ppm as H2O2), hour 2", "result": "3.10 × 10^5 CFU/ml"}, {"measurement": "CFU/ml LAB at hour indicated", "setting": "[1]; molasses at pH 4.2, 750 ppm (207 ppm as H2O2), hour 24", "result": "1.50 × 10^3 CFU/ml"}, {"measurement": "CFU/ml LAB at hour indicated", "setting": "[1]; molasses at pH 5.4, 250 ppm (69 ppm as H2O2), hour 2", "result": "3.95 × 10^5 CFU/ml"}, {"measurement": "CFU/ml LAB at hour indicated", "setting": "[1]; molasses at pH 5.4, 250 ppm (69 ppm as H2O2), hour 24", "result": "7.50 × 10^1 CFU/ml"}, {"measurement": "CFU/ml LAB at hour indicated", "setting": "[1]; molasses at pH 5.4, 500 ppm (138 ppm as H2O2), hour 2", "result": "3.85 × 10^4 CFU/ml"}, {"measurement": "CFU/ml LAB at hour indicated", "setting": "[1]; molasses at pH 5.4, 500 ppm (138 ppm as H2O2), hour 24", "result": "1.50 × 10^1 CFU/ml"}, {"measurement": "CFU/ml LAB at hour indicated", "setting": "[1]; molasses at pH 5.4, 750 ppm (207 ppm as H2O2), hour 2", "result": "2.80 × 10^4 CFU/ml"}, {"measurement": "CFU/ml LAB at hour indicated", "setting": "[1]; molasses at pH 5.4, 750 ppm (207 ppm as H2O2), hour 24", "result": "<10", "unit": "CFU/ml"}, {"measurement": "CFU/ml LAB at hour indicated", "setting": "[1]; molasses at pH 5.4, 750 ppm (207 ppm as H2O2), hour 24, listed as sodium percarbonate", "result": "below the detection limit"}, {"measurement": "reduction in the amount of LAB", "setting": "[1]; molasses pH 4.2, 250 ppm sodium percarbonate", "result": "approximately 1 log"}, {"measurement": "reduction in the amount of LAB", "setting": "[1]; molasses pH 4.2, 500 ppm sodium percarbonate", "result": "approximately 1 log"}, {"measurement": "reduction in the amount of LAB", "setting": "[1]; molasses pH 4.2, 750 ppm sodium percarbonate", "result": "approximately 1 log"}, {"measurement": "reduction in the number of LAB", "setting": "[1]; molasses pH 4.2, 750 ppm sodium percarbonate, 24 hour", "result": "more than 3 log units"}, {"measurement": "reduction in the level of LAB", "setting": "[1]; molasses pH 5.4, 250 ppm sodium percarbonate, 24-hour", "result": "~6", "unit": "log"}, {"measurement": "reduction in the levels of LAB", "setting": "[1]; molasses pH 5.4, 500 ppm sodium percarbonate", "result": "approximately 2 log"}, {"measurement": "reduction in the levels of LAB", "setting": "[1]; molasses pH 5.4, 750 ppm sodium percarbonate", "result": "approximately 2 log"}, {"measurement": "reduction of yeast", "setting": "Ethanol Red; [4]", "result": "< 1", "unit": "log"}, {"measurement": "yeast level after treatment", "setting": "Ethanol Red; 100 ppm percarbonate", "result": "7.90 × 10^6 CFU/ml"}, {"measurement": "yeast level after treatment", "setting": "Ethanol Red; 250 ppm percarbonate", "result": "5.00 × 10^6 CFU/ml"}, {"measurement": "yeast level after treatment", "setting": "Ethanol Red; 500 ppm percarbonate", "result": "1.99 × 10^6 CFU/ml"}, {"measurement": "reduction of yeast", "setting": "Ethanol Red; 1000 ppm percarbonate", "result": "approximately 1 log"}, {"measurement": "yeast level after treatment", "setting": "Ethanol Red; 1000 ppm percarbonate", "result": "4.90 × 10^5 CFU/ml"}, {"measurement": "reduction of yeast", "setting": "FermPro S; [4]", "result": "< 1", "unit": "log"}, {"measurement": "yeast level after treatment", "setting": "FermPro S; 100 ppm percarbonate", "result": "7.30 × 10^6 CFU/ml"}, {"measurement": "yeast level after treatment", "setting": "FermPro S; 250 ppm percarbonate", "result": "3.00 × 10^6 CFU/ml"}, {"measurement": "yeast level after treatment", "setting": "FermPro S; 500 ppm percarbonate", "result": "1.43 × 10^6 CFU/ml"}, {"measurement": "reduction of yeast", "setting": "FermPro S; 1000 ppm percarbonate", "result": "approximately 1 log"}, {"measurement": "yeast level after treatment", "setting": "FermPro S; 1000 ppm percarbonate", "result": "2.90 × 10^5 CFU/ml"}, {"measurement": "reduction in the concentration of yeast", "setting": "SuperStart; [4]", "result": "approximately 1 log"}, {"measurement": "yeast level after treatment", "setting": "SuperStart; 100 ppm percarbonate", "result": "1.22 × 10^6 CFU/ml"}, {"measurement": "yeast level after treatment", "setting": "SuperStart; 250 ppm percarbonate", "result": "3.80 × 10^5 CFU/ml"}, {"measurement": "yeast level after treatment", "setting": "SuperStart; 500 ppm percarbonate", "result": "1.07 × 10^5 CFU/ml"}, {"measurement": "yeast level after treatment", "setting": "SuperStart; 1000 ppm percarbonate", "result": "6.00 × 10^3 CFU/ml"}, {"measurement": "reduction of the population of LAB", "setting": "[2]; 500 ppm as H2O2, 2 hours of incubation at 32° C., in presence of yeast", "result": "~5", "unit": "log units"}, {"measurement": "Log CFU/mL of LAB at hour indicated", "setting": "[2]; 500 ppm as H2O2, hour 2, molasses pH 5.0, yeast approx. 6.80 Log CFU/ml", "result": 1.95, "unit": "Log CFU/mL"}, {"measurement": "Log CFU/mL of LAB at hour indicated", "setting": "[2]; 500 ppm as H2O2, hour 6, molasses pH 5.0, yeast approx. 6.80 Log CFU/ml, listed as percarbonate", "result": "<1", "unit": "Log CFU/mL"}, {"measurement": "Log CFU/mL of LAB at hour indicated", "setting": "[2]; 500 ppm as H2O2, hour 6, molasses pH 5.0, yeast approx. 6.80 Log CFU/ml, listed as sodium percarbonate", "result": "below the detectable limit"}, {"measurement": "% Remaining H2O2 Day 0", "setting": "[3]", "result": 100, "unit": "%"}, {"measurement": "% Remaining H2O2 Day 6", "setting": "[3]", "result": 99, "unit": "%"}, {"measurement": "% Remaining H2O2 Day 14", "setting": "[3]", "result": 99, "unit": "%"}, {"measurement": "% H2O2 Day 0", "setting": "[3]; before storage, duplicate samples, listed as Sodium percarbonate (Alfa Aesar)", "result": "27.48% and 27.38%"}, {"measurement": "% H2O2 Day 6", "setting": "[3]; storage at 40° C. in dry oven, day 6, duplicate samples, listed as Sodium percarbonate (Alfa Aesar)", "result": "27.12% and 27.05%"}, {"measurement": "% H2O2 Day 14", "setting": "[3]; storage at 40° C. in dry oven, day 14, duplicate samples, listed as Sodium percarbonate (Alfa Aesar)", "result": "27.11% and 26.99%"}]}
